Reference: publication PMC7312386, “The Effect of Substituted Benzene-Sulfonamides and Clinically Licensed Drugs on the Catalytic Activity of CynT2, a Carbonic Anhydrase Crucial for Escherichia coli Life Cycle” (International Journal of Molecular Sciences, 2020)

target: T1, CynT2 (Escherichia coli, UniProt P61517); assay: stopped-flow CO2 hydrase assay, phenol red; format: biochemical; conditions: not given
T1 construct: gene can; oligomer not determined (dimer or tetramer stated for bacterial beta-CAs in general)
T1 sequence (P61517 whole entry): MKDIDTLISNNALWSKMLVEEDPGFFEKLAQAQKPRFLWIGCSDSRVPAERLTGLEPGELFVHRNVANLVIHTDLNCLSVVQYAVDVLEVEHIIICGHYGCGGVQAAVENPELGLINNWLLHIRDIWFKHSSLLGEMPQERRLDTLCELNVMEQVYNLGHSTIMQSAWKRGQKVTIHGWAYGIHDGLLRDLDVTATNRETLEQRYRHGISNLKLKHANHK

Structure (SMILES) | Ki
NCCc1ccc(S(N)(=O)=O)cc1 [compound 6, 6] | 3320 nM

same assay, conditions: read-out: KI *(nM) / CynT2

Structure (SMILES) | Ki
NS(=O)(=O)c1ccc(S(=O)(=O)Nc2cccc3c(Cl)c[nH]c23)cc1 [IND, Indisulam] | 2390 nM
Nc1cccc(S(N)(=O)=O)c1 [compound 1, 1] | 705 nM
Cc1ccc(S(N)(=O)=O)cc1 [compound 4, 4] | 3010 nM
NS(=O)(=O)c1ccc(C(=O)O)cc1 [compound 18, 18] | 205 nM
CC1(C)O[C@@H]2[C@@H](CO[C@@]3(COS(N)(=O)=O)OC(C)(C)O[C@@H]23)O1 [TPM, Topiramate] | 3360 nM
Nc1ccc(S(N)(=O)=O)cc1Br [compound 9, 9] | 2710 nM
NS(=O)(=O)c1ccc(CO)cc1 [compound 16, 16] | 2340 nM
Nc1ccc(S(=O)(=O)NCCc2ccc(S(N)(=O)=O)cc2)cc1 [compound 24, 24] | 82 nM
Cn1nc(S(N)(=O)=O)sc1=N [compound 14, 14] | 440 nM
Nc1ccc(S(N)(=O)=O)cc1 [compound 2, 2] | 790 nM
Nc1cc(Cl)c(S(N)(=O)=O)cc1S(N)(=O)=O [compound 12, 12] | 4390 nM
NS(=O)(=O)c1cc(Cl)c(Cl)c(S(N)(=O)=O)c1 [DCP, Dichlorophenamide] | > 10000 nM
Nc1cc(C(F)(F)F)c(S(N)(=O)=O)cc1S(N)(=O)=O [compound 11, 11] | 6250 nM
Nc1ccc(S(=O)(=O)Nc2ccc(S(N)(=O)=O)cc2)cc1 [compound 22, 22] | 93 nM
O=C1NS(=O)(=O)c2ccccc21 [SAC, Saccharin] | 6690 nM
NS(=O)(=O)c1cccc(S(N)(=O)=O)c1 [compound 3, 3] | 457 nM
NC(N)=Nc1nc(CSCCC(N)=NS(N)(=O)=O)cs1 [FAM, Famotidine] | 2770 nM
CCN1CCCC1CNC(=O)c1cc(S(N)(=O)=O)ccc1OC (centres unmarked) [SLP, Sulpiride] | 97 nM
Cc1onc(-c2ccccc2)c1-c1ccc(S(N)(=O)=O)cc1 [VLX, Valdecoxib] | 2750 nM

Structure (SMILES) | Ki
Nc1ccc(S(=O)(=O)Nc2nnc(S(N)(=O)=O)s2)cc1 [compound 20, 20] | 726 nM
NS(=O)(=O)c1nnc(NS(=O)(=O)c2ccccc2)s1 [BZA, Benzolamide] | 276 nM
NS(=O)(=O)c1ccc(N2CCCCS2(=O)=O)cc1 [SLT, Sulthiame] | 285 nM
NS(=O)(=O)c1ccc(O)cc1 [compound 15, 15] | 6440 nM
Nc1ccc(S(N)(=O)=O)cc1Cl [compound 8, 8] | > 10000 nM
NS(=O)(=O)c1cc2c(cc1Cl)NCNS2(=O)=O [HCT, Hydrochlorothiazide] | 5010 nM
Nc1ccc(S(N)(=O)=O)cc1F [compound 7, 7] | > 10000 nM
CC(=O)N=c1sc(S(N)(=O)=O)nn1C [MZA, Methazolamide] | 480 nM
Nc1nccc(Nc2ccc(S(N)(=O)=O)cc2)n1 [compound 19, 19] | 416 nM
NS(=O)(=O)c1ccc(CCO)cc1 [compound 17, 17] | 502 nM
NCc1ccc(S(N)(=O)=O)cc1 [compound 5, 5] | 2840 nM
Cc1ccc(-c2cc(C(F)(F)F)nn2-c2ccc(S(N)(=O)=O)cc2)cc1 [CLX, Celecoxib] | 1890 nM
Nc1nnc(S(N)(=O)=O)s1 [compound 13, 13] | 4120 nM
Nc1ccc(S(=O)(=O)NCc2ccc(S(N)(=O)=O)cc2)cc1 [compound 23, 23] | 322 nM
NS(=O)(=O)c1cc(Cl)cc(Cl)c1O [compound 10, 10] | 8560 nM
NS(=O)(=O)NCCNc1nonc1C(=NO)Nc1ccc(F)c(Br)c1 [EPA, Epacadostat] | 2560 nM
CCN[C@H]1CN(CCCOC)S(=O)(=O)c2sc(S(N)(=O)=O)cc21 [BRZ, Brinzolamide] | 2050 nM
NS(=O)(=O)Cc1noc2ccccc12 [ZNS, Zonisamide] | 3190 nM
